Values joined by “and” are separate entries in the source; they are usually repeats but may differ in a detail not shown here. Identical values can stand only once. Inconclusive results and toxic doses are left out.

Results on 23 compounds are retold here after PubChem BioAssay AID330 (DTP/NCI, 2004).

The test system of the experiment is P388 leukemia ip, CD2F1 mice, survival T/C. The experiment can be described thus: NCI In Vivo Anticancer Drug Screen. Data for tumor model P388 Leukemia (intraperitoneal) in CD2F1 (CDF1) mice. As to conditions: endpoint: median survival time, higher = longer survival. A digest of the protocol: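 Mice carrying the transplanted tumor received test compound or vehicle. Survival was recorded in each group, and the value is the treated-group measurement divided by that of the vehicle-treated control group.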

The mark [1] stands for this setting: dose: 50.0 mg/kg/injection, schedule: Q01DX009 (ip), vehicle: saline.
[2] abbreviates: dose: 100.0 mg/kg/injection, schedule: Q01DX009 (ip), vehicle: saline.
The mark [3] stands for this setting: dose: 50.0 mg/kg/injection, schedule: Q01DX009 (ip), vehicle: saline with Tween-80.
Where [4] appears, read: dose: 50.0 mg/kg/injection, schedule: Q01DX005 (ip), vehicle: saline.
Setting [5] is: dose: 100.0 mg/kg/injection, schedule: Q01DX005 (ip), vehicle: saline.
[6] abbreviates: dose: 200.0 mg/kg/injection, schedule: Q01DX005 (ip), vehicle: saline.
The mark [7] stands for this setting: dose: 12.5 mg/kg/injection, schedule: Q01DX009 (ip), vehicle: Klucel (hydroxypropylcellulose) (HPC).
The mark [8] stands for this setting: dose: 25.0 mg/kg/injection, schedule: Q01DX009 (ip), vehicle: Klucel (hydroxypropylcellulose) (HPC).
[9] abbreviates: dose: 100.0 mg/kg/injection, schedule: Q01DX009 (ip), vehicle: Klucel (hydroxypropylcellulose) (HPC).
The mark [10] stands for this setting: dose: 200.0 mg/kg/injection, schedule: Q01DX009 (ip), vehicle: Klucel (hydroxypropylcellulose) (HPC).
[11] abbreviates: dose: 400.0 mg/kg/injection, schedule: Q01DX009 (ip), vehicle: Klucel (hydroxypropylcellulose) (HPC).
Setting [12] is: dose: 60.0 mg/kg/injection, schedule: Q01DX005 (ip), vehicle: saline with Tween-80.
The mark [13] stands for this setting: dose: 120.0 mg/kg/injection, schedule: Q01DX005 (ip), vehicle: saline with Tween-80.
Where [14] appears, read: dose: 240.0 mg/kg/injection, schedule: Q01DX005 (ip), vehicle: saline with Tween-80.

In the case of `Fc1cccc(NC(=S)SCc2ccco2)c1`, the T/C runs as follows: (dose: 50.0 mg/kg/injection, schedule: Q01DX009 (ip), vehicle: suspension in saline) 93 % of control; (dose: 100.0 mg/kg/injection, schedule: Q01DX009 (ip), vehicle: suspension in saline) 90 % of control; (dose: 200.0 mg/kg/injection, schedule: Q01DX009 (ip), vehicle: suspension in saline) 107 % of control.

Turning to `O=C(O)C[n+]1ccccc1`, the T/C is, setting by setting: (dose: 6.25 mg/kg/injection, schedule: Q01DX009 (ip), vehicle: saline) 103 % of control; (dose: 12.5 mg/kg/injection, schedule: Q01DX009 (ip), vehicle: saline) 101 % of control and 94 % of control; (dose: 25.0 mg/kg/injection, schedule: Q01DX009 (ip), vehicle: saline) 105 % of control; under setting [1], 101 % of control; under setting [2], 97 % of control.

With `CCC[N+]12CC=C3COC(=O)C(C)(O)C(C)(O)C(C)C(=O)OC(CC1)C32` (centres undefined), the T/C runs as follows: (dose: 60.0 mg/kg/injection, schedule: Q01DX005 (ip), vehicle: saline) 100 % of control; (dose: 120.0 mg/kg/injection, schedule: Q01DX005 (ip), vehicle: saline) 105 % of control; (dose: 240.0 mg/kg/injection, schedule: Q01DX005 (ip), vehicle: saline) 98 % of control.

For the compound `O=C(CBr)N1c2ccccc2Sc2ccc3ccccc3c21`, the T/C by setting is: (dose: 25.0 mg/kg/injection, schedule: Q01DX009 (ip), vehicle: saline with Tween-80) 110 % of control and 120 % of control; under setting [3], 122 % of control.

Take `COc1cccc(OC)c1OCCN`: the T/C is 111 % of control under setting [1] and 99 % of control under setting [2].

As to `N=c1ncn(C2OC(CO)C(O)C2O)c2nc(Br)[nH]c12` (centres undefined), the T/C runs as follows: (dose: 25.0 mg/kg/injection, schedule: Q04DX003 (ip), vehicle: saline with Tween-80) 100 % of control; (dose: 50.0 mg/kg/injection, schedule: Q04DX003 (ip), vehicle: saline with Tween-80) 105 % of control; (dose: 100.0 mg/kg/injection, schedule: Q04DX003 (ip), vehicle: saline with Tween-80) 100 % of control; (dose: 200.0 mg/kg/injection, schedule: Q04DX003 (ip), vehicle: saline with Tween-80) 98 % of control.

For `C1N2CN3CN1CN(C2)C3`, the T/C reads like this: under setting [4], 95 % of control; under setting [5], 101 % of control; under setting [6], 96 % of control.

For `Ic1ccc(N=Cc2ccc(C=Nc3ccc(I)cc3)cc2)cc1`, the T/C by setting is: under setting [7], 99 % of control; under setting [8], 95 % of control; (dose: 50.0 mg/kg/injection, schedule: Q01DX009 (ip), vehicle: Klucel (hydroxypropylcellulose) (HPC)) 100 % of control; under setting [9], 86 % of control; under setting [10], 89 % of control.

Turning to `O=C1CC2CCC(CN2C(=O)OCc2ccccc2)O1` (centres undefined), the T/C reads like this: (dose: 60.0 mg/kg/injection, schedule: Q01DX005 (ip), vehicle: Klucel (hydroxypropylcellulose) (HPC)) 102 % of control; (dose: 120.0 mg/kg/injection, schedule: Q01DX005 (ip), vehicle: Klucel (hydroxypropylcellulose) (HPC)) 99 % of control; (dose: 240.0 mg/kg/injection, schedule: Q01DX005 (ip), vehicle: Klucel (hydroxypropylcellulose) (HPC)) 100 % of control.

For `S=C(N/N=C\c1nc2ccccc2c2ccccc12)Nc1ccc(Cl)cc1`, the T/C was 90 % of control (dose: 100.0 mg/kg/injection, schedule: Q04DX002 (ip), vehicle: Klucel (hydroxypropylcellulose) (HPC)); 96 % of control (dose: 200.0 mg/kg/injection, schedule: Q04DX002 (ip), vehicle: Klucel (hydroxypropylcellulose) (HPC)); 96 % of control (dose: 400.0 mg/kg/injection, schedule: Q04DX002 (ip), vehicle: Klucel (hydroxypropylcellulose) (HPC)).

On to `[CH3][Sn]([CH3])([N](c1ccccn1)c1ccccn1)[N](c1ccccn1)c1ccccn1`, for which the T/C is 111 % of control (dose: 50.0 mg/kg/injection, schedule: Q01DX005 (ip), vehicle: Klucel (hydroxypropylcellulose) (HPC)) and 118 % of control (dose: 100.0 mg/kg/injection, schedule: Q01DX005 (ip), vehicle: Klucel (hydroxypropylcellulose) (HPC)).

Consider `OCC1OC(n2cnc3c(Br)ncnc32)C(O)C1O` (centres undefined), for which the T/C is 91 % of control (dose: 50.0 mg/kg/injection, schedule: Q01DX005 (ip), vehicle: saline with Tween-80); 98 % of control (dose: 100.0 mg/kg/injection, schedule: Q01DX005 (ip), vehicle: saline with Tween-80); 91 % of control (dose: 200.0 mg/kg/injection, schedule: Q01DX005 (ip), vehicle: saline with Tween-80).

As to `O=C(Nc1ccc(C2=NCCN2)cc1)c1cc(Cl)cc(C(=O)Nc2ccc(C3=NCCN3)cc2)c1`, the T/C (dose: 140.0 mg/kg/injection, schedule: Q01DX010 (ip), vehicle: saline) was 95 % of control; the T/C (dose: 210.0 mg/kg/injection, schedule: Q01DX010 (ip), vehicle: saline) was 90 % of control; the T/C (dose: 315.0 mg/kg/injection, schedule: Q01DX010 (ip), vehicle: saline) was 100 % of control; the T/C (dose: 473.0 mg/kg/injection, schedule: Q01DX010 (ip), vehicle: saline) is 100 % of control.

Regarding `CC1=C/C(=N\NS(=O)(=O)c2ccc([N+](=O)[O-])cc2)CC(C)(C)C1`, the T/C is 87 % of control under setting [9], 98 % of control under setting [10] and 100 % of control under setting [11].

As to `O=c1c2ccc(Cl)cc2nc2nc(-c3ccccc3)c3cc(Cl)ccc3n12`, the T/C was 107 % of control under setting [12], 106 % of control under setting [13] and 97 % of control under setting [14].

As to `NC(=S)NNC(=O)c1cccs1`, the T/C under setting [12] is 108 % of control, the T/C under setting [13] is 100 % of control and the T/C under setting [14] is 99 % of control.

Turning to `CC(C)OP(=S)(OC(C)C)SC(C)C`, the T/C is, setting by setting: under setting [1], 104 % of control; under setting [2], 119 % of control; (dose: 200.0 mg/kg/injection, schedule: Q01DX009 (ip), vehicle: saline) 116 % of control.

`C=CC(C1=CC(=O)C(OC)=CC1=O)c1ccccc1` (centres undefined): the T/C was 101 % of control (dose: 2.5 mg/kg/injection, schedule: Q01DX009 (ip), vehicle: saline with Tween-80); 103 % of control (dose: 5.0 mg/kg/injection, schedule: Q01DX009 (ip), vehicle: saline with Tween-80); 102 % of control (dose: 10.0 mg/kg/injection, schedule: Q01DX009 (ip), vehicle: saline with Tween-80).

As to `O=C(O)/C=C/C(=O)Nc1ccc(Cl)c(Cl)c1`, the T/C was 105 % of control (dose: 6.25 mg/kg/injection, schedule: Q01DX009 (ip), vehicle: Klucel (hydroxypropylcellulose) (HPC)); 115 % of control under setting [7]; 105 % of control under setting [8]; 109 % of control under setting [11].

In the case of `CCN(CC)CCCC(C)Nc1ncnc2ccc(OC)cc12` (centres undefined), the T/C is 94 % of control under setting [4], 99 % of control under setting [5] and 94 % of control under setting [6].

For `CC(/C=C/C=C/C=C/C=C/C=C/C(O)=C1/C(=O)C(CCC(=O)O)N(C)C1=O)=C\C(C)C(OC1CC(O)C(O)C(C)O1)C(C)C` (centres undefined), the T/C (dose: 1.0 mg/kg/injection, schedule: Q01DX005 (ip), vehicle: water) was 121 % of control; the T/C (dose: 2.0 mg/kg/injection, schedule: Q01DX005 (ip), vehicle: water) is 165 % of control; the T/C (dose: 4.0 mg/kg/injection, schedule: Q01DX005 (ip), vehicle: water) is 112 % of control and 115 % of control; the T/C (dose: 8.0 mg/kg/injection, schedule: Q01DX005 (ip), vehicle: water) is 158 % of control and 163 % of control.

On to `COc1ccccc1NC(CCN1CCCCC1)=NC(C)(C)C`, for which the T/C under setting [3] is 111 % of control; the T/C (dose: 100.0 mg/kg/injection, schedule: Q01DX009 (ip), vehicle: saline with Tween-80) was 106 % of control; the T/C (dose: 200.0 mg/kg/injection, schedule: Q01DX009 (ip), vehicle: saline with Tween-80) was 104 % of control.

In the case of `CCOC(=O)/C=C1/CC(C#N)(C(=O)NN)CO1` (centres undefined), the T/C by setting is: (dose: 100.0 mg/kg/injection, schedule: Q01DX001 (ip), vehicle: Klucel (hydroxypropylcellulose) (HPC)) 102 % of control; (dose: 200.0 mg/kg/injection, schedule: Q01DX001 (ip), vehicle: Klucel (hydroxypropylcellulose) (HPC)) 110 % of control; (dose: 400.0 mg/kg/injection, schedule: Q01DX001 (ip), vehicle: Klucel (hydroxypropylcellulose) (HPC)) 100 % of control.
